Results: doi:10.1101/2024.08.19.608619, “Discovery of potent SARS-CoV-2 nsp3 macrodomain inhibitors uncovers lack of translation to cellular antiviral response” (bioRxiv, 2024)
Read-outs that look alike come from different tables or passages of the source.

What was measured:
SARS-CoV-2 nsp3-mac1 [1] = target: T1, SARS-CoV-2 nsp3-mac1 (Severe acute respiratory syndrome coronavirus 2, UniProt P0DTD1); experiment: biochemical; format: biochemical; details: SARS-CoV-2 nsp3 macrodomain TR-FRET single point, concentration 50.0 uM
SARS-CoV-2 nsp3-mac1 [2] = target: T1, SARS-CoV-2 nsp3-mac1; experiment: biochemical; design: SARS-CoV-2 nsp3 macrodomain TR-FRET single point, per cent inhibition, n=2

Row | Compound | perc_inhibition_mean (SARS-CoV-2 nsp3-mac1 [1]) [%] | further results
1 | Cc1[nH]c2ncnc(NC(=O)[C@@H]3CCO[C@@H]3C)c2c1C [ASAP-0000090] | 35.092 | inhibition at 50 µM (SARS-CoV-2 nsp3-mac1 [2]; read-out: perc_inhibition_mean, batch_name=ASAP-0000090-001): 35.1%
2 | O=C1CC[C@H](COC(=O)c2ncnc3[nH]ccc23)CCN1 [ASAP-0000091] | -7.865 | inhibition at 50 µM (SARS-CoV-2 nsp3-mac1 [2]; read-out: perc_inhibition_mean, batch_name=ASAP-0000091-001): -7.87%
3 | c1ccc2c(-c3c[nH]c4ncccc34)n[nH]c2c1 [ASAP-0000092] | -7.254 | inhibition at 50 µM (SARS-CoV-2 nsp3-mac1 [2]; read-out: perc_inhibition_mean, batch_name=ASAP-0000092-001): -7.25%
4 | CCO[C@@H]1C[C@@H](Nc2ncnc3[nH]ccc23)C12CCOCC2 [ASAP-0000093] | 2.316 | inhibition at 50 µM (SARS-CoV-2 nsp3-mac1 [2]; read-out: perc_inhibition_mean, batch_name=ASAP-0000093-001): 2.32%
5 | O=C1C[C@@]2(CCCN(c3ncnc4[nH]ccc34)C2)CN1 [ASAP-0000094] | -2.451 | inhibition at 50 µM (SARS-CoV-2 nsp3-mac1 [2]; read-out: perc_inhibition_mean, batch_name=ASAP-0000094-001): -2.45%
6 | Cn1nc(NCc2cc3c(=O)[nH]ccc3o2)c2nccnc21 [ASAP-0000095] | -1.007 | inhibition at 50 µM (SARS-CoV-2 nsp3-mac1 [2]; read-out: perc_inhibition_mean, batch_name=ASAP-0000095-001): -1.01%
7 | Cn1ncc2c(NCc3ncccc3O)ncnc21 [ASAP-0000096] | 3.893 | inhibition at 50 µM (SARS-CoV-2 nsp3-mac1 [2]; read-out: perc_inhibition_mean, batch_name=ASAP-0000096-001): 3.89%
8 | O=S(=O)(Nc1ncccn1)c1ccc2oc3ccccc3c2c1 [ASAP-0000097] | -3.004 | inhibition at 50 µM (SARS-CoV-2 nsp3-mac1 [2]; read-out: perc_inhibition_mean, batch_name=ASAP-0000097-001): -3%
9 | COCc1nc(CNc2ncc3c(n2)COC3)cs1 [ASAP-0000098] | -7.137 | inhibition at 50 µM (SARS-CoV-2 nsp3-mac1 [2]; read-out: perc_inhibition_mean, batch_name=ASAP-0000098-001): -7.14%
10 | Cn1nc(NC(=O)c2cc(-c3ccco3)[nH]n2)c2nccnc21 [ASAP-0000099] | -5.398 | inhibition at 50 µM (SARS-CoV-2 nsp3-mac1 [2]; read-out: perc_inhibition_mean, batch_name=ASAP-0000099-001): -5.4%
11 | O=S(=O)(NC[C@H]1CCOC1)c1cn2c(n1)CCCC2 [ASAP-0000100] | -3.203 | inhibition at 50 µM (SARS-CoV-2 nsp3-mac1 [2]; read-out: perc_inhibition_mean, batch_name=ASAP-0000100-001): -3.2%
12 | Cc1nc2cnccn2c1NC(=O)c1cc(-c2ccco2)[nH]n1 [ASAP-0000101] | -3.884 | inhibition at 50 µM (SARS-CoV-2 nsp3-mac1 [2]; read-out: perc_inhibition_mean, batch_name=ASAP-0000101-001): -3.88%
13 | O=C(Cc1ccon1)Nc1ncnc2[nH]cnc12 [ASAP-0000102] | -1.615 | inhibition at 50 µM (SARS-CoV-2 nsp3-mac1 [2]; read-out: perc_inhibition_mean, batch_name=ASAP-0000102-001): -1.61%
14 | Cc1ncc(NCc2ncn(C)c2Cl)cc1C(N)=O [ASAP-0000103] | 2.409 | inhibition at 50 µM (SARS-CoV-2 nsp3-mac1 [2]; read-out: perc_inhibition_mean, batch_name=ASAP-0000103-001): 2.41%
15 | Cc1ncc(NCc2cc3n(n2)CCOC3)cc1C(N)=O [ASAP-0000104] | 0.46 | inhibition at 50 µM (SARS-CoV-2 nsp3-mac1 [2]; read-out: perc_inhibition_mean, batch_name=ASAP-0000104-001): 0.46%
16 | O=S(=O)(NC[C@@H]1CCCCO1)c1cn2c(n1)CCCC2 [ASAP-0000105] | -5.386 | inhibition at 50 µM (SARS-CoV-2 nsp3-mac1 [2]; read-out: perc_inhibition_mean, batch_name=ASAP-0000105-001): -5.39%
17 | Cc1cc(NCc2csc(C)n2)ncn1 [ASAP-0000106] | -4.644 | inhibition at 50 µM (SARS-CoV-2 nsp3-mac1 [2]; read-out: perc_inhibition_mean, batch_name=ASAP-0000106-001): -4.64%
18 | COc1ccccc1CN(C[C@@H]1CCCO1)c1ncnc2[nH]ccc12 [ASAP-0000107] | 4.74 | inhibition at 50 µM (SARS-CoV-2 nsp3-mac1 [2]; read-out: perc_inhibition_mean, batch_name=ASAP-0000107-001): 4.74%
19 | Cc1cccc([C@@H]2CCCN2c2ncnc3[nH]ccc23)n1 [ASAP-0000108] | 0.182 | inhibition at 50 µM (SARS-CoV-2 nsp3-mac1 [2]; read-out: perc_inhibition_mean, batch_name=ASAP-0000108-001): 0.182%
20 | CC(=O)Nc1ccc(S(=O)(=O)NNc2ncnc3sccc23)cc1 [ASAP-0000109] | 5.363 | inhibition at 50 µM (SARS-CoV-2 nsp3-mac1 [2]; read-out: perc_inhibition_mean, batch_name=ASAP-0000109-001): 5.36%
21 | Cc1cccc(Cl)c1-n1sc(=O)n(CC2CC2)c1=O [ASAP-0000110] | 51.933 | inhibition at 50 µM (SARS-CoV-2 nsp3-mac1 [2]; read-out: perc_inhibition_mean, batch_name=ASAP-0000110-001): 51.9%
22 | COc1cc(OC)cc(C(=O)N(CCC(=O)N2CCNCC2)Cc2cccc(Cl)c2)c1 [ASAP-0000111] | -4.529 | inhibition at 50 µM (SARS-CoV-2 nsp3-mac1 [2]; read-out: perc_inhibition_mean, batch_name=ASAP-0000111-001): -4.53%
23 | CN(c1ncnc2[nH]ccc12)[C@H]1CCN(S(C)(=O)=O)C1 [ASAP-0000112] | -0.371 | inhibition at 50 µM (SARS-CoV-2 nsp3-mac1 [2]; read-out: perc_inhibition_mean, batch_name=ASAP-0000112-001): -0.371%

Row | Compound | perc_inhibition_mean (SARS-CoV-2 nsp3-mac1 [1]) [%] | further results
24 | Cc1nn(C)c(NCc2nc(CO)cs2)c1C#N [ASAP-0000113] | 2.1 | inhibition at 50 µM (SARS-CoV-2 nsp3-mac1 [2]; read-out: perc_inhibition_mean, batch_name=ASAP-0000113-001): 2.1%
25 | O=C(CCCc1cccnc1)Nc1cnc2[nH]ncc2c1 [ASAP-0000114] | -3.651 | inhibition at 50 µM (SARS-CoV-2 nsp3-mac1 [2]; read-out: perc_inhibition_mean, batch_name=ASAP-0000114-001): -3.65%
26 | CNC(=O)c1ccnc(NC(=O)c2ccc(N3CCOCC3)cc2)c1 [ASAP-0000115] | -12.336 | inhibition at 50 µM (SARS-CoV-2 nsp3-mac1 [2]; read-out: perc_inhibition_mean, batch_name=ASAP-0000115-001): -12.3%
27 | Cc1noc(CCCNC(=O)c2ncnc3[nH]ccc23)n1 [ASAP-0000116] | -5.133 | inhibition at 50 µM (SARS-CoV-2 nsp3-mac1 [2]; read-out: perc_inhibition_mean, batch_name=ASAP-0000116-001): -5.13%
28 | COCc1cc(CNc2nc3[nH]cnc3c(=O)[nH]2)on1 [ASAP-0000117] | 2.984 | inhibition at 50 µM (SARS-CoV-2 nsp3-mac1 [2]; read-out: perc_inhibition_mean, batch_name=ASAP-0000117-001): 2.98%
29 | Cc1cc(NCc2cnc3c(c2)NC(=O)CO3)cnc1C [ASAP-0000118] | 4.531 | inhibition at 50 µM (SARS-CoV-2 nsp3-mac1 [2]; read-out: perc_inhibition_mean, batch_name=ASAP-0000118-001): 4.53%
30 | Cn1ncc2ncnc(NCc3ncccc3O)c21 [ASAP-0000119] | -2.547 | inhibition at 50 µM (SARS-CoV-2 nsp3-mac1 [2]; read-out: perc_inhibition_mean, batch_name=ASAP-0000119-001): -2.55%
31 | O=C(OCc1ncccc1Cl)c1ncnc2[nH]ccc12 [ASAP-0000120] | 5.063 | inhibition at 50 µM (SARS-CoV-2 nsp3-mac1 [2]; read-out: perc_inhibition_mean, batch_name=ASAP-0000120-001): 5.06%
32 | CC(C)n1ncnc1CNc1cc2c(=O)nc[nH]c2cn1 [ASAP-0000121] | -1.486 | inhibition at 50 µM (SARS-CoV-2 nsp3-mac1 [2]; read-out: perc_inhibition_mean, batch_name=ASAP-0000121-001): -1.49%
33 | Cc1cncc(NCc2csc(-c3ccccn3)n2)c1 [ASAP-0000122] | -5.024 | inhibition at 50 µM (SARS-CoV-2 nsp3-mac1 [2]; read-out: perc_inhibition_mean, batch_name=ASAP-0000122-001): -5.02%
34 | c1ccc(-c2nc(CNc3cccnc3)cs2)nc1 [ASAP-0000123] | -9.865 | inhibition at 50 µM (SARS-CoV-2 nsp3-mac1 [2]; read-out: perc_inhibition_mean, batch_name=ASAP-0000123-001): -9.87%
35 | Cc1cc(NCc2ncccc2O)ncn1 [ASAP-0000124] | -3.335 | inhibition at 50 µM (SARS-CoV-2 nsp3-mac1 [2]; read-out: perc_inhibition_mean, batch_name=ASAP-0000124-001): -3.33%
36 | Cn1nc(NC(=O)c2cc3nccn3c(=O)[nH]2)c2nccnc21 [ASAP-0000125] | -1.913 | inhibition at 50 µM (SARS-CoV-2 nsp3-mac1 [2]; read-out: perc_inhibition_mean, batch_name=ASAP-0000125-001): -1.91%
37 | Cn1c(C(=O)NCCNC(=O)c2ccco2)cc2c(=O)n3ccccc3nc21 [ASAP-0000126] | -4.472 | inhibition at 50 µM (SARS-CoV-2 nsp3-mac1 [2]; read-out: perc_inhibition_mean, batch_name=ASAP-0000126-001): -4.47%
38 | CCn1cc(CNc2nc3[nH]cnc3c(=O)[nH]2)nn1 [ASAP-0000127] | -0.991 | inhibition at 50 µM (SARS-CoV-2 nsp3-mac1 [2]; read-out: perc_inhibition_mean, batch_name=ASAP-0000127-001): -0.991%
39 | O=C(NCc1nc(-c2ccco2)n[nH]1)c1cc(=O)n2ncnc2[nH]1 [ASAP-0000128] | -2.599 | inhibition at 50 µM (SARS-CoV-2 nsp3-mac1 [2]; read-out: perc_inhibition_mean, batch_name=ASAP-0000128-001): -2.6%
40 | COCc1cc(CC(=O)Nc2ncnc3[nH]cnc23)no1 [ASAP-0000129] | 2.968 | inhibition at 50 µM (SARS-CoV-2 nsp3-mac1 [2]; read-out: perc_inhibition_mean, batch_name=ASAP-0000129-001): 2.97%
41 | NS(=O)(=O)c1ccccc1CNc1ncnc2[nH]ccc12 [ASAP-0000130] | 3.656 | inhibition at 50 µM (SARS-CoV-2 nsp3-mac1 [2]; read-out: perc_inhibition_mean, batch_name=ASAP-0000130-001): 3.66%
42 | O=C(Nc1ccc(C(=O)NCc2c(C(=O)O)[nH]c3ccccc23)cc1)NC1CC1 [ASAP-0000131] | 86.217 | inhibition at 50 µM (SARS-CoV-2 nsp3-mac1 [2]; read-out: perc_inhibition_mean, batch_name=ASAP-0000131-001): 86.2%
43 | O=C(Nc1cnc2[nH]ncc2c1)C1(c2ccccc2)CC1 [ASAP-0000133] | 3.207 | inhibition at 50 µM (SARS-CoV-2 nsp3-mac1 [2]; read-out: perc_inhibition_mean, batch_name=ASAP-0000133-001): 3.21%
44 | COC(=O)c1cc2c(Oc3ccccc3C#N)ncnc2[nH]1 [ASAP-0000135] | 2.922 | inhibition at 50 µM (SARS-CoV-2 nsp3-mac1 [2]; read-out: perc_inhibition_mean, batch_name=ASAP-0000135-001): 2.92%
45 | O=C(Cn1c(=O)[nH]c2ccccc21)Nc1cnc2[nH]ncc2c1 [ASAP-0000137] | 1.776 | inhibition at 50 µM (SARS-CoV-2 nsp3-mac1 [2]; read-out: perc_inhibition_mean, batch_name=ASAP-0000137-001): 1.78%
